Measurements taken from publication PMC4718913, “Characterization of a novel oxidase from Thelonectria discophora SANK 18292 involved in nectrisine biosynthesis” (AMB Express, 2016).

Assays:
NecC [1] = molecular target: T1, NecC (Thelonectria discophora, UniProt A0A0S3Q283); assay: H2O2 production, ABTS/peroxidase coupled, absorbance at […] nm; format: biochemical; parameters: native, purified from mycelium (ammonium sulfate, DEAE); FAD-like flavin; homo-oligomers about 8 mer to 16 mer; settings: pH 7.0, 30 °C
T1 sequence (A0A0S3Q283 1-558): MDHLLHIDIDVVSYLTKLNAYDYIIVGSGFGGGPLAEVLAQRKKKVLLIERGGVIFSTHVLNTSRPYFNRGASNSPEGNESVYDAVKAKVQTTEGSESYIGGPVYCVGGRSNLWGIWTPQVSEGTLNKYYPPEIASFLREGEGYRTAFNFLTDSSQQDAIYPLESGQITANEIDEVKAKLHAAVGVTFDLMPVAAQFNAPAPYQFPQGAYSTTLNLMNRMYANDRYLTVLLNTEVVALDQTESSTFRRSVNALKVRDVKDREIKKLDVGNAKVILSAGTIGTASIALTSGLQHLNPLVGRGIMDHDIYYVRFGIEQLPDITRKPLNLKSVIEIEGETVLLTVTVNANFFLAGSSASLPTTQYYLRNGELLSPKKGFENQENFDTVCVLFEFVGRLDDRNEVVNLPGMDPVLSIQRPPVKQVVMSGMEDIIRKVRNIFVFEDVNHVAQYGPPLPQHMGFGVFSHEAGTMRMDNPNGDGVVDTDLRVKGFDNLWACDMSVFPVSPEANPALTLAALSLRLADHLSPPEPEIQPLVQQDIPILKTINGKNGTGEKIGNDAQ

NecC [2] = molecular target: T1, NecC; assay: LC-MS of nectrisine formed (NaBH4 reduction, NBD-F label); format: biochemical; parameters: full-length cDNA in pET21b, C-terminal His tag, E. coli BL21 (DE3), Ni column; about 62 kDa; settings: 15 °C, 12.5 h

SMILES | H2O2 production, ABTS/peroxidase coupled, absorbance at 420 nm (NecC [1]; xylitol in place of 4-amino-4-deoxyarabinitol) | H2O2 production, ABTS/peroxidase coupled, absorbance at 420 nm (NecC [1]; 1 mM substrate, O2 as acceptor) | LC-MS of nectrisine formed (NaBH4 reduction, NBD-F label) (NecC [2])
OC[C@@H](O)[C@H](O)[C@@H](O)CO [xylitol] | NecC also exhibited activity against some sugar alcohols | – | –
N[C@H](CO)[C@@H](O)[C@H](O)CO [compound 2, 4-amino-4-deoxyarabinitol] | – | 4-amino-4-deoxyarabinitol was the preferred substrate | the recombinant NecC had 4-amino-4-deoxyarabinitol oxidase activity
